Results from patent publication US20230174485A1, “LIPOXYGENASE INHIBITORS” (SRI International, priority 2020, published 2023).
Where “and” joins values, the source holds several entries; their conditions need not be identical. Identical values can stand only once. Counter-ions that a name gives are not always drawn. Like-named read-outs stand apart in the source and are kept apart here.

How the values were obtained:
Format in all cases: biochemical
recombinant 5-LOX = molecular target: T1, recombinant 5-LOX (Homo sapiens, UniProt P09917); assay: 5-LOX fluorescent assay; conditions: several values in one cell = repeat determinations; read-out: IC50 (μM) values for in vitro lipoxygenase inhibition, 5-LOX
T1 sequence (P09917 1-674): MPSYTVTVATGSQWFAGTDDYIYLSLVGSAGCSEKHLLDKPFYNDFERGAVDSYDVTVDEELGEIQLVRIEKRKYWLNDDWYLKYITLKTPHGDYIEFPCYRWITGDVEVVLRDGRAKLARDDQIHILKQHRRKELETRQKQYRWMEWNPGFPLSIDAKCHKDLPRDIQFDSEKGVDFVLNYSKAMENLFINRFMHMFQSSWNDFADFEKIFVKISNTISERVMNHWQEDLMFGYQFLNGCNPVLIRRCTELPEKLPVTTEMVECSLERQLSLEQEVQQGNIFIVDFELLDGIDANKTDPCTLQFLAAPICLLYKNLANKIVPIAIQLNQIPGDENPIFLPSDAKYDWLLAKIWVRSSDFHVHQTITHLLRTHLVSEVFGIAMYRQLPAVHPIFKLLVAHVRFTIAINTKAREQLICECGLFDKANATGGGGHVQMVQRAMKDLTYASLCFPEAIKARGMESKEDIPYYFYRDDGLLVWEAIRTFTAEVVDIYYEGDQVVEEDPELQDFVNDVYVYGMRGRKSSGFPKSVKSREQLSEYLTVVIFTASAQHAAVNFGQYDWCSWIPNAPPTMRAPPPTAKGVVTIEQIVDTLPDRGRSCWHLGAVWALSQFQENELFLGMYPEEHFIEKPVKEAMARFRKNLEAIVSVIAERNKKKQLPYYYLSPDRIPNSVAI
Procedure: 5-LOX FI assay Fluorescent Assay
The enzyme assay (100 μL) contained 50 mM Tris, pH 7.5, 0.1 mM EDTA, 0.3 mM CaCl2, 20 μM AA, 100 μM ATP, 1 μM DHR123, and recombinant 5-LOX cell lysate (0.5 μL/100 μL). Inhibitors (dissolved in DMSO) were plated at 1 μL into 96-well assay microplates followed by a 40 μL addition of a solution containing 5-LOX enzyme. Enzyme was pre-incubated with compounds for 15 mins. The assay was initiated by the addition of a 40 μL substrate solution containing AA and ATP, and 20 μL addition of a solution containing DHR123. Enzymatic reaction proceeded for 30 min with kinetic reading at 500 nm excitation & 536 nm emission in SpectraMax Paradigm (MolecularDevice). Percent inhibition was calculated for each compound dose for IC50 curve fitting using 4 Parameter Logistic Model or Sigmoidal Dose-Response Model.

[1] = molecular target: T2, recombinant 12-LOX enzyme (Homo sapiens, UniProt P18054); assay: 12-LOX fluorescent assay; conditions: several values in one cell = repeat determinations; read-out: IC50 (μM) values for in vitro lipoxygenase inhibition, 12-LOX
T2 sequence (P18054 1-663): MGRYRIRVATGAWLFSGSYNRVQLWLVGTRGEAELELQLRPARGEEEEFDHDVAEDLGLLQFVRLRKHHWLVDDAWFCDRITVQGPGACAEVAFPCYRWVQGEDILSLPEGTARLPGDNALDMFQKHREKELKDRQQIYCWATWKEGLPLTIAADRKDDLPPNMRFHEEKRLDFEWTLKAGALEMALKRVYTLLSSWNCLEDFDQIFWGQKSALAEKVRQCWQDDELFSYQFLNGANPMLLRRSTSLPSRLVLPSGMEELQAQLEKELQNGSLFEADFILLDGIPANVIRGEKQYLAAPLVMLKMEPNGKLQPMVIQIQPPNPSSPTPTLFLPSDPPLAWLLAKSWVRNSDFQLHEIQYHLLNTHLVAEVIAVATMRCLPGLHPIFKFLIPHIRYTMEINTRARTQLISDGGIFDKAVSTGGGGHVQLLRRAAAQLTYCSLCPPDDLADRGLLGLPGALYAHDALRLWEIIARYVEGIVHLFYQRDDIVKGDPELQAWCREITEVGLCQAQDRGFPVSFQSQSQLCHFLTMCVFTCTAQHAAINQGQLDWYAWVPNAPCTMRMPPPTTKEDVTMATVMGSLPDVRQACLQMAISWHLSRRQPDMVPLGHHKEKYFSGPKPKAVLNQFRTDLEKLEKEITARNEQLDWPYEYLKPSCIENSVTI
Procedure: (§1) 12-LOX/15-LOX Fluorescent Assay
(§2) The enzyme assay (100 ul) contained 50 mM Tris, pH 7.5, 0.05% Tween-20, 20 μM AA/LA, 1 μM DHR123, and 100 nM recombinant 12-LOX enzyme/50 nM recombinant 15-LOX enzyme. Inhibitors (dissolved in DMSO) were plated at 1 μL into 96-well assay microplates followed by a 40 μL addition of a solution containing 12-LOX/15-LOX enzyme. Enzyme was pre-incubated with compounds for 15 mins. The assay was initiated by the addition of a 40 μL substrate solution containing AA/LA, and 20 μL addition of a solution containing DHR123. Enzymatic reaction proceeded for 30 min with kinetic reading at 500 nm excitation & 536 nm emission in SpectraMax Paradigm (MolecularDevice). Percent inhibition was calculated for each compound dose for IC50 curve fitting using 4 Parameter Logistic Model or Sigmoidal Dose-Response Model.

[2] = molecular target: T3, recombinant 15-LOX enzyme (Homo sapiens, UniProt P16050); assay: 15-LOX fluorescent assay; conditions: several values in one cell = repeat determinations
T3 sequence (P16050 1-662): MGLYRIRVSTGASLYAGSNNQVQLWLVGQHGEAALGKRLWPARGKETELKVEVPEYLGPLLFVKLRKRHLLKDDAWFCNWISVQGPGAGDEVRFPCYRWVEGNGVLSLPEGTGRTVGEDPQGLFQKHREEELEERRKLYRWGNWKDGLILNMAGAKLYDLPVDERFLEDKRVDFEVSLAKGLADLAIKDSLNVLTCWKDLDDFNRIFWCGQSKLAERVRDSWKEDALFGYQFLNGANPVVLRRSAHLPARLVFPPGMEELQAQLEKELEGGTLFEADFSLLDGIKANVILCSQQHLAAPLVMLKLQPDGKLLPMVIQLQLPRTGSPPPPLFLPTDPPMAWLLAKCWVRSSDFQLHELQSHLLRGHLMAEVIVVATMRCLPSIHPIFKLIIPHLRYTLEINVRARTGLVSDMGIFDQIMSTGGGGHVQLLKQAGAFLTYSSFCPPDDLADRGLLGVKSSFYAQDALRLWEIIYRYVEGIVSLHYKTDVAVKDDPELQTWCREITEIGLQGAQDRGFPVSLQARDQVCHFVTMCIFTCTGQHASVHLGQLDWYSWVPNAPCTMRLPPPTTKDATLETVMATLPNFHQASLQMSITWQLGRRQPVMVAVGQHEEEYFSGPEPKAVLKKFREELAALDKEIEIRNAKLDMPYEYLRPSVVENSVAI
Procedure: as §1, §2

[3] = read-out: IC50 (μM) values for in vitro lipoxygenase inhibition, 15-LOX
[4] = IC50 (μM) values for in vitro lipoxygenase inhibition, 15-LOX

Compound	IC50 (recombinant 5-LOX)	IC50 [1]	IC50 [2, 3]	IC50 [2, 4]
c1ccc2c(c1)[nH]c1cc3c(ccn3CCn3cncn3)cc12 [SS20308-0062-01, 1-(2-(1H-1,2,4-triazol-1-yl)ethyl)-1,9-dihydropyrrolo[2,3-b]carbazole]	0.53 µM and 0.42 µM	0.19 µM and 0.24 µM	0.94 µM and 1.68 µM	
CN(C)CCOc1c2c(cc3[nH]c4ccccc4c13)[nH]c1ccccc12 [SS20308-0063-01, 2-(5,7-dihydroindolo[2,3-b]carbazol-12-yloxy)-N,N-dimethylethanamine]	0.53 µM and 0.69 µM	0.46 µM and 0.56 µM		0.29 µM and 0.9 µM
CN(C)CCOc1c2[nH]c3ccccc3c2cc2[nH]c3ccccc3c12 [SS20308-0065-01, 2-(5,11-dihydroindolo[3,2-b]carbazol-6-yloxy)-N,N-dimethylethanamine]	0.01 µM and 0.04 µM	0.02 µM and 0.06 µM	0.03 µM	
CN(C)CCCc1c(O)ccc2c1[nH]c1ccc(F)cc12 [SS20308-0068-01, 1-(3-(dimethylamino)propyl)-6-fluoro-9H-carbazol-2-ol]	5.63 µM	0.77 µM		1.76 µM
CN(C)CCOc1c(N)cc(Cl)c2c1[nH]c1ccc(F)cc12 [SS20308-0069-01, 4-chloro-1-(2-(dimethylamino)ethoxy)-6-fluoro-9H-carbazol-2-amine]	14.8 µM	7.93 µM	8.34 µM	
CN(C)CCOc1cc2c3ncccc3[nH]c2c2c1[nH]c1cccnc12 [SS20308-0070-01]	9.17 µM	6.32 µM	4.53 µM	
CN(C)CCOc1c(-c2ccccc2N)ccc2c1[nH]c1ccccc12 [SS20308-0073-01, 2-(1-(2-(dimethylamino)ethoxy)-9H-carbazol-2-yl)aniline dihydrochloride]	14.4 µM	49.2 µM		26.1 µM
CN(C)CCOc1cc2c(cc1-c1ccccc1[N+](=O)[O-])[nH]c1ccccc12 [SS20308-0076-01, N,N-dimethyl-2-(2-(2-nitrophenyl)-9H-carbazol-3-yloxy)ethanamine]	4.54 µM	3.59 µM	5.7 µM	
CN(C)CCOc1c(-c2ccccc2[N+](=O)[O-])ccc2c1[nH]c1ccccc12 [SS20308-0077-01, N,N-dimethyl-2-(2-(2-nitrophenyl)-9H-carbazol-1-yloxy)ethanamine]	2.66 µM	2.32 µM	2.15 µM	

Results, then the compound that gave them:

IC50 (recombinant 5-LOX)	IC50 [1]	IC50 [2, 3]	IC50 [2, 4]	Compound
6.79 µM	5.42 µM		3.36 µM	Fc1ccc2[nH]c3c(OCCn4cncn4)cc(Oc4ccccc4)cc3c2c1 [SS20308-0084-01, 1-(2-(1H-1,2,4-triazol-1-yl)ethoxy)-6-fluoro-3-phenoxy-9H-carbazole]
0.57 µM and 1.6 µM	0.32 µM and 0.92 µM		1.19 µM and 2.23 µM	c1ccc(-c2c(NCCn3cncn3)ccc3c2[nH]c2ccccc23)cc1 [SS20308-0085-01, N-(2-(1H-1,2,4-triazol-1-yl)ethyl)-1-phenyl-9H-carbazol-2-amine]
0.62 µM	0.87 µM	0.42 µM		CN(C)CCOc1c(CNc2ccccc2)ccc2c1[nH]c1ccccc12 [SS20308-0086-01, N-((1-(2-(dimethylamino)ethoxy)-9H-carbazol-2-yl)methyl)aniline]
0.47 µM	0.43 µM	0.69 µM		CN(C)CCCOc1cccc2c1-c1[nH]c3ccccc3c1CS2 [SS20308-0090-01, 3-(6,11-dihydrothiochromeno[4,3-b]indol-1-yloxy)-N,N-dimethylpropan-1-amine]
1.46 µM	1.69 µM	2.37 µM		CN(C)CCOc1ccc(Cl)c2c1-c1[nH]c3ccc(F)cc3c1CS2 [SS20308-0093-01, 2-(4-chloro-8-fluoro-6,11-dihydrothiochromeno[4,3-b]indol-1-yloxy)-N,N-dimethylethanamine]
> 100 µM	> 100 µM	> 100 µM		Cc1c2[nH]c3ccccc3c2c(CCCN(C)C)c2[nH]c3ccccc3c12 [SS20308-0100-01, N,N-dimethyl-3-(12-methyl-5,11-dihydroindolo[3,2-b]carbazol-6-yl)propan-1-amine]
0.07 µM and 0.05 µM and 0.04 µM	0.08 µM and 0.1 µM and 0.12 µM	40 nM (2×) and 70 nM		CN(C)CCOc1c2[nH]c3ccc(F)cc3c2c(F)c2[nH]c3ccc(F)cc3c12 [SS20308-0101-01, N,N-dimethyl-2-(2,8,12-trifluoro-5,11-dihydroindolo[3,2-b]carbazol-6-yloxy) ethanamine]
0.02 µM	2.23 µM	0.06 µM		CN(C)CCOc1cc2c3ccccc3[nH]c2c2[nH]c3ccccc3c12 [SS20308-0103-01, 2-(11,12-dihydroindolo[2,3-a]carbazol-5-yloxy)-N,N-dimethylethanamine]
20.3 µM	44.9 µM	0.09 µM		c1ccc(-c2cc(NCCCn3cncn3)cc3c2[nH]c2ccccc23)cc1 [SS20308-0111-01, N-(3-(1H-1,2,4-triazol-1-yl)propyl)-1-phenyl-9H-carbazol-3-amine]
> 100 µM	> 100 µM	> 100 µM		Cc1c2[nH]c3ccccc3c2cc2[nH]c3ccccc3c12 [SS20308-0112-01, 6-methyl-5,11-dihydroindolo[3,2-b]carbazole]
23.2 µM	24.2 µM		26.9 µM	COc1ccc2c([nH]c3ccc(F)cc32)c1CCCN(C)C [SS20308-0118-01, 3-(6-fluoro-2-methoxy-9H-carbazol-1-yl)-N,N-dimethylpropan-1-amine]
